These results are taken from article PMC3469418, “New Partners in Regulation of Gene Expression: The Enhancer of Trithorax and Polycomb Corto Interacts with Methylated Ribosomal Protein L12 Via Its Chromodomain” (PLoS Genetics, 2012).

Where two headings read alike, the source gives them in different places. Where a SMILES comes first, the peptide text is derived from it. Where no end group is shown, it is not given here. [ ]: non-standard residue; d: D form. Lys(Me3) = C[N+](C)(C)CCCC[C@H](N)C(=O)O; Lys(Me2) = CN(C)CCCC[C@H](N)C(=O)O A value given as a limit tells only on which side of the number the result lay.

Assay [1] deals with T1, Corto chromodomain (GST-CortoCD) (Drosophila melanogaster, UniProt P41046).
T1 construct: Over-expression of the Corto chromodomain (CortoCD); made in house
T1 sequence (P41046 127-203 limits assumed): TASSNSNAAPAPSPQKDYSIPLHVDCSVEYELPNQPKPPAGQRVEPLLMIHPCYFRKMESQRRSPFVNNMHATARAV
Kind of assay: Biacore real-time binding of peptides to immobilized GST-CortoCD. The following applies: for kon: pH 7.4, Figure 5B, Biacore 3000, CM5 chip, peptides 1 to 10 µM in running buffer (10 mM Hepes pH7.4, 150 mM NaCl), 5 µL/min for 5 min, 1:1 Langmuir fit, read-out: CortoCD Ka. How it is done:
(§1) To test whether Corto directly interacted with RPL12 lysine 3, we measured real-time binding between CortoCD and several RPL12 peptides using Biacore. GST-CortoCD and GST were immobilized on a CM5 sensor chip. Then, several RPL12 peptides [unmodified (RPL12um), methylated on lysine 3 (RPL12K3me2, RPL12K3me3), methylated on lysine 10 (RPL12K10me3) or lysine 3 mutated (RPL12K3A)] were assayed for their binding to GST-CortoCD or GST (Figure 5, Figure S3).
(D) Equilibrium dissociation constant (KD) calculated from CortoCD or HP1CD interacting with unmethylated or trimethylated histone H3 peptides. For H3K9me3, peptide concentration was increased from 0 to 1 µM. For RPL12 and H3K27me3 peptide concentration was increased from 0 to 10 µM. NB: no binding; nd: not determined.
(§2) GST or GST fusion proteins were dialyzed using a Slide-A-Lyser cassette (Thermo Scientific) in running buffer (10 mM Hepes pH7.4, 150 mM NaCl, 3 mM EDTA, 0.005% P20 surfactant) (GE Healthcare). Real-time protein interaction assays were performed using a Biacore 3000. Kinetics and binding tests were first performed on empty surfaces. Data presented here result from substraction of empty surface RU (1 to 5 depending on the experiment) from active surface RU. GST was covalently coupled to a CM5 sensor chip (GE Healthcare) via its N-terminal amino acid. The carboxymethylated dextran surface was activated by injecting a mixture of 0.2 M 1-ethyl-3-(3-dimethylaminopropyl) and 0.05 M N-hydroxysuccinimide. GST was immobilized on the chip by injecting a 30 µg.mL^−1 solution in NaAc pH5 buffer. GST-CortoCD and GST-HP1CD were immobilized by injecting a 100 µg.mL^−1 solution in the same buffer. Binding tests were performed by injecting peptides at 1 or 10 µM in running buffer at a flow rate of 5 µL.min^−1 during 5 min. Kinetic assays were performed only when the binding test was positive. […] To calculate association constants, peptides were diluted in series from 1 to 10 µM in running buffer and dilutions were injected sequentially at a flow rate of 5 µL.mn^−1 during 5 min. Dissociation kinetics were then run during 10 min to calculate dissociation constants. Between assays, the chip was regenerated with 10 mM glycine pH2.0. Kinetic constants were calculated with BIAevaluation Software (Biacore) using the Fit kinetic simultaneous ka/kd (1∶1 binding; Langmuir algorithm). RPL12 peptides were synthesized at the IFR83 Peptide synthesis facility (Table S13). Histone peptides were provided by Diagenode (H3K27me3: sp-069-050; H3K4me3: sp-003-050; H3K9me3: sp-056-050; H3K4/K9um: sp-999-050; H3K27um: sp-998-050).

For assay [2], the target named is HP1 chromodomain (GST-HP1CD) (Drosophila melanogaster, UniProt P05205). The experiment in a line: Biacore real-time binding of peptides to immobilized GST-HP1CD. The procedure: Figure 5 Preferential binding of Corto chromodomain to RPL12 trimethylated on lysine 3. (A) Biacore sensorgrams showing binding of either RPL12 unmethylated peptide (RPL12 um, left panel) or RPL12 peptide trimethylated on lysine 3 (RPL12K3me3, right panel) to CortoCD. Increasing concentrations of RPL12 um or RPL12K3me3 peptides were used [from 0 (light grey lines) to 10 µM (darker grey to black lines]. Binding (Y-axis, Response) is expressed in Resonance Units (RU) relative to time (X-axis). Note the response due to end of injection of the peptides at 300 s. (B) Kinetic parameters of interaction between CortoCD and RPL12 um, RPL12K3me2 or RPL12K3me3 peptides. Note that CortoCD interacts specifically with RPL12 trimethylated on lysine 3 (KD = 8 µM). (C) Equilibrium dissociation constant (KD) calculated for CortoCD or HP1CD in interaction with RPL12 um peptide, RPL12 methylated peptides, or RPL12K3A peptide. Note that CortoCD specifically binds to RPL12K3me3 (KD<100 µM). (D) Equilibrium dissociation constant (KD) calculated from CortoCD or HP1CD interacting with unmethylated or trimethylated histone H3 peptides. For H3K9me3, peptide concentration was increased from 0 to 1 µM. For RPL12 and H3K27me3 peptide concentration was increased from 0 to 10 µM. NB: no binding; nd: not determined. TEXT PRINTED IN THE PICTURE: (B) RpL12um: CortoCD Ka ( M^-1s^-1): 1.2; CortoCD Kd ( s^-1): 7.6.10^-4; CortoCD KD (μM): 624 | (B) RpL12K3me2: CortoCD Ka ( M^-1s^-1): 4.1; CortoCD Kd ( s^-1): 9.9.10^-4; CortoCD KD (μM): 238 | (B) RpL12K3me3: CortoCD Ka ( M^-1s^-1): 106; CortoCD Kd ( s^-1): 8.2.10^-4; CortoCD KD (μM): 8 | (C) RpL12um: CortoCD: 624; HP1CD: > 1000 | (C) RpL12K3me2: CortoCD: 238 | (C) RpL12K3me3: CortoCD: 8; HP1CD: 292 | (C) RpL12K10me3: CortoCD: NB; HP1CD: NB | (C) RpL12K3A: CortoCD: NB; HP1CD: NB | (D) H3K4me3: CortoCD: NB; HP1CD: NB | (D) H3K9me3: CortoCD: NB; HP1CD: 0.4 | (D) H3K27me3: CortoCD: NB; HP1CD: 0.7 | (D) H3um: CortoCD: NB; HP1CD: NB | (D) H3K27um: CortoCD: NB; HP1CD: NB DOUBTS OF THE COPYIST ABOUT THIS PICTURE: Panels C and D: the picture prints no measure or unit for the table values, so they are given with the row head only / Panel C, RpL12K3me2, HP1CD: the cell prints 'nd', which is not a result and is left out
To investigate whether RPL12K3me3 could bind to other chromodomains, we repeated these experiments using that of HP1 (HP1CD). GST-HP1CD was immobilized on the sensor chip and binding of either RPL12, RPL12K3me3, RPL12K10me3 or RPL12K3A was tested. None of these peptides specifically interacted with HP1CD (KD>200 µM) (Figure 5C, Figure S3). […] No binding of unmodified H3, H3K27me3, H3K9me3 or H3K4me3 peptides was observed (Figure 5D) while, as expected, the H3K9me3 peptide bound HP1CD with high affinity (KD = 0.4 µM).
GST or GST fusion proteins were dialyzed using a Slide-A-Lyser cassette (Thermo Scientific) in running buffer (10 mM Hepes pH7.4, 150 mM NaCl, 3 mM EDTA, 0.005% P20 surfactant) (GE Healthcare). Real-time protein interaction assays were performed using a Biacore 3000. Kinetics and binding tests were first performed on empty surfaces. Data presented here result from substraction of empty surface RU (1 to 5 depending on the experiment) from active surface RU. GST was covalently coupled to a CM5 sensor chip (GE Healthcare) via its N-terminal amino acid. The carboxymethylated dextran surface was activated by injecting a mixture of 0.2 M 1-ethyl-3-(3-dimethylaminopropyl) and 0.05 M N-hydroxysuccinimide. […]
(In SPR one partner is held on a chip, and binding of the other changes the refractive index at the surface.)

The target of assay [3] is T2, GST (Schistosoma japonicum, UniProt P08515).
T2 construct: made in house
Kind of assay: Biacore real-time binding of peptides to immobilized GST (control surface). The following applies: binding test, peptides at 1 or 10 µM. The procedure: as §1
as §2, with “RPL12 peptides were synthesized at the IFR83 Peptide synthesis facility (Table S13). Histone peptides were provided by Diagenode (H3K27me3: sp-069-050; H3K4me3: sp-003-050; H3K9me3: sp-056-050; H3K4/K9um: sp-999-050; H3K27um: sp-998-050).” left out

[4] abbreviates: >200 µM = no specific interaction, read-out: KD for HP1CD.

As usually defined, the Kd is the concentration at which binding is half-saturated.

Chain of HP1 chromodomain (GST-HP1CD) (P05205 24-82 limits assumed): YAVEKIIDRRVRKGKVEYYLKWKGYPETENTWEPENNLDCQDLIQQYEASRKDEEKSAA
T2 sequence (P08515 whole entry): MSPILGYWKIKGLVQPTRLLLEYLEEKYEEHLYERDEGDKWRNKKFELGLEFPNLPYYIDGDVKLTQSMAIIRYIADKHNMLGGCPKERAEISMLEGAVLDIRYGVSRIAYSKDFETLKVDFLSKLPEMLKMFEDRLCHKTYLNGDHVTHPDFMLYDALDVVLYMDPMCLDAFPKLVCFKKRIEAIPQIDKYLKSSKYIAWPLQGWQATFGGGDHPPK

`CC(C)C[C@H](NC(=O)[C@H](Cc1ccc(O)cc1)NC(=O)[C@@H](NC(=O)[C@H](CC(C)C)NC(=O)[C@H](CCCCN)NC(=O)[C@@H](NC(=O)[C@H](CCC(=O)O)NC(=O)[C@@H](NC(=O)[C@@H]1CCCN1C(=O)[C@H](CC(=O)O)NC(=O)[C@H](Cc1ccccc1)NC(=O)[C@H](CCCCN(C)C)NC(=O)[C@@H]1CCCN1C(=O)[C@@H]1CCCN1)[C@@H](C)O)C(C)C)C(C)C)C(=O)N[C@@H](CCCNC(=N)N)C(=O)N[C@@H](CS)C(=O)N[C@H](C(=O)NCC(=O)NCC(=O)N[C@@H](CCC(=O)O)C(=O)N[C@H](C(=O)NCC(=O)N[C@@H](C)C(=O)O)C(C)C)C(C)C` [RpL12K3me2] (H-PP[Lys(Me2)]FDPTEVKLVYLRCVGGEVGA-OH): in assay [1], the Kd was greater than 200 µM and the kon stood at 4.1 M⁻¹ s⁻¹.
Turning to `CC(C)C[C@H](NC(=O)[C@H](Cc1ccc(O)cc1)NC(=O)[C@@H](NC(=O)[C@H](CC(C)C)NC(=O)[C@H](CCCCN)NC(=O)[C@@H](NC(=O)[C@H](CCC(=O)O)NC(=O)[C@@H](NC(=O)[C@@H]1CCCN1C(=O)[C@H](CC(=O)O)NC(=O)[C@H](Cc1ccccc1)NC(=O)[C@H](CCCC[N+](C)(C)C)NC(=O)[C@@H]1CCCN1C(=O)[C@@H]1CCCN1)[C@@H](C)O)C(C)C)C(C)C)C(=O)N[C@@H](CCCNC(=N)N)C(=O)N[C@@H](CS)C(=O)N[C@H](C(=O)NCC(=O)NCC(=O)N[C@@H](CCC(=O)O)C(=O)N[C@H](C(=O)NCC(=O)N[C@@H](C)C(=O)O)C(C)C)C(C)C` [RpL12K3me3] (H-PP[Lys(Me3)]FDPTEVKLVYLRCVGGEVGA-OH), in assay [1], binding was characterised by a dissociation constant (Kd) of 8 µM and the kon came to 106 M⁻¹ s⁻¹. Further, the Kd in assay [2] (setting [4]) is greater than 200 µM.
`CC(C)C[C@H](NC(=O)[C@H](Cc1ccc(O)cc1)NC(=O)[C@@H](NC(=O)[C@H](CC(C)C)NC(=O)[C@H](CCCC[N+](C)(C)C)NC(=O)[C@@H](NC(=O)[C@H](CCC(=O)O)NC(=O)[C@@H](NC(=O)[C@@H]1CCCN1C(=O)[C@H](CC(=O)O)NC(=O)[C@H](Cc1ccccc1)NC(=O)[C@H](CCCCN)NC(=O)[C@@H]1CCCN1C(=O)[C@@H]1CCCN1)[C@@H](C)O)C(C)C)C(C)C)C(=O)N[C@@H](CCCNC(=N)N)C(=O)N[C@@H](CS)C(=O)N[C@H](C(=O)NCC(=O)NCC(=O)N[C@@H](CCC(=O)O)C(=O)N[C@H](C(=O)NCC(=O)N[C@@H](C)C(=O)O)C(C)C)C(C)C` [RpL12K10me3] (H-PPKFDPTEV[Lys(Me3)]LVYLRCVGGEVGA-OH): the Kd in assay [1] and in assay [2] (setting [4]) was greater than 200 µM in each case. For the same molecule, the “binding of RPL12 peptides to GST (in words)” value (from here on “binding of RPL12 peptides”) in assay [3] was “None of these peptides bound GST”.
In the case of H-PPAFDPTEVKLVYLRCVGGEVGA-OH [RpL12K3A], the Kd in assay [1] and in assay [2] (setting [4]) was greater than 200 µM throughout. For the same molecule, in assay [3], the “binding of RPL12 peptides” value is on record as “None of these peptides bound GST”.
In the case of PPKFDPTEVKLVYLRCVGGEVGA [RpL12um], the Kd in assay [1] was greater than 200 µM; in assay [2] (setting [4]) it was greater than 200 µM; in assay [2] (Figure 5C, RPL12 peptides 0 to 10 µM, NB = no binding, read-out: Equilibrium dissociation constant (KD), HP1CD), greater than 1000 µM. For the same molecule, the kon in assay [1] is 1.2 M⁻¹ s⁻¹. Also, in assay [3], the “binding of RPL12 peptides” value was “None of these peptides bound GST”.
